Test results as given in patent US20260356856A1, “KRAS G12S AND G12C INHIBITORS” (MIRATI THERAPEUTICS, INC., priority 2023, published 2026).

Tests used:
[1] = target: T1, KRas-mediated phosphorylation of ERK in H358 cells (Homo sapiens, UniProt P01116, G12C); experiment: Inhibition of KRas-mediated phosphorylation of ERK (HTRF), H358 cells; format: cell-based; conditions: HTRF pERK, 3 h incubation
T1 construct: pERK HTRF read-out

KRas G12C = target: T2, KRas G12C (Homo sapiens, UniProt P01116, G12C); experiment: KRas binding assay, TR-FRET displacement of Cy5 labelled tracer; conditions: 60-minute incubation at room temperature, 1% DMSO, pH 7.5
T2 construct: Biotinylated KRas (corresponding to amino acids 1-169, produced at Accelegan Inc.); biotin (biotinylated); purchased Accelegan Inc
T2 sequence (P01116 1-169 isoform P01116-2 G12C): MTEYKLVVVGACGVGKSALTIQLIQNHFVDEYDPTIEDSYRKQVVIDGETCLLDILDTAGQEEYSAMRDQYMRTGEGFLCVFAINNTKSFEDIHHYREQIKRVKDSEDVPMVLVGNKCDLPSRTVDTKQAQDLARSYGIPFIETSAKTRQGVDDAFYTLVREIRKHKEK
How it was run: (§1)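 Each mutant protein, a biotinylated 1-169 construct, was combined with terbium streptavidin, tracer and compound. After sixty minutes at room temperature TR-FRET was recorded. POC data were fitted with a four-parameter IC50 model.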

KRas WT = target: T3, KRas WT (Homo sapiens, UniProt P01116); experiment: as above; conditions: 60-minute incubation at room temperature, 1% DMSO, pH 7.5
T3 construct: Biotinylated KRas (corresponding to amino acids 1-169, produced at Accelegan Inc.); biotin (biotinylated); purchased Accelegan Inc
T3 sequence (P01116 1-169 isoform P01116-2): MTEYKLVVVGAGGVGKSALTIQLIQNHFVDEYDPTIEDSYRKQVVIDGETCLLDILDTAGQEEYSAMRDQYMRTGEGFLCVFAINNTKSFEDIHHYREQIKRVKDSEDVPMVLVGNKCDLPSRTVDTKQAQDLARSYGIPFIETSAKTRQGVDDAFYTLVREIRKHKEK
How it was run: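 Displacement measured on KRas residues 1-169 (biotinylated, terbium-streptavidin labelled); 1 h, RT; 1% DMSO final; HEPES pH 7.5 / MgCl2 / Tween-20 / DTT. IC50: 4-parameter fit.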

KRas G12S = target: T4, KRas G12S (Homo sapiens, UniProt P01116, G12S); experiment: as above; conditions: 60-minute incubation at room temperature, 1% DMSO, pH 7.5
T4 construct: Biotinylated KRas (corresponding to amino acids 1-169, produced at Accelegan Inc.); biotin (biotinylated); purchased Accelegan Inc
T4 sequence (P01116 1-169 isoform P01116-2 G12S): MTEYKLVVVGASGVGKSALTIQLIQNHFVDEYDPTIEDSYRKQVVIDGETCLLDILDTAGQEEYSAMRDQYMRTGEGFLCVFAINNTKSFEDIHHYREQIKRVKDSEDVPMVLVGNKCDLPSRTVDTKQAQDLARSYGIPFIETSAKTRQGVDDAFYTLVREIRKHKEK
How it was run: as §1

[2] = target: T5, KRas-mediated phosphorylation of ERK in MKN1 cells (Homo sapiens, UniProt P01116); experiment: Inhibition of KRas-mediated phosphorylation of ERK (HTRF), MKN1 cells; format: cell-based; conditions: MKN1 cells (KRas WT); HTRF pERK; 3 h incubation
T5 construct: pERK HTRF read-out
T5 sequence (P01116 1-188 isoform P01116-2): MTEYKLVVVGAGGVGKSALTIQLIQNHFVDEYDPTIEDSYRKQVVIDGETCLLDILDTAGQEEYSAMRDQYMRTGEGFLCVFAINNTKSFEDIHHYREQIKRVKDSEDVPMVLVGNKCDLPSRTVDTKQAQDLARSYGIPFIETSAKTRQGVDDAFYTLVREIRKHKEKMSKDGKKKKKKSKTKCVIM
Experimental: Inhibition of KRas Phosphorylation of ERK (HTRF) by Exemplary Compounds of Formula (Ia) or (Ib)
Cisbio HTRF Advanced pERK Assay Catalog #64AERPEH • Cells: MKN1, PSN1 • Procedure: • 1. Day 1: Seed 6,000 cells/well −25 μl/well in 384-well white solid bottom plate; RPM1_10% FBS. Incubate overnight at 37 °C/5% CO2. • 2.

[3] = target: T6, KRas-mediated phosphorylation of ERK in A549 cells (Homo sapiens, UniProt P01116, G12S); experiment: Inhibition of KRas-mediated phosphorylation of ERK (HTRF), A549 cells; format: cell-based; conditions: HTRF pERK, 3 h incubation
T6 construct: pERK HTRF read-out
T6 sequence (P01116 1-188 isoform P01116-2 G12S): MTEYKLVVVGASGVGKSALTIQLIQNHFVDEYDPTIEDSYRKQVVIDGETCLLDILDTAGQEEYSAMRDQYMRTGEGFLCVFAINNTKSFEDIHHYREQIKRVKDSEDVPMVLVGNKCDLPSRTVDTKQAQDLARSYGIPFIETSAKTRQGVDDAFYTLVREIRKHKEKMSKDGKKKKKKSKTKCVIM

T1 sequence (P01116 1-188 isoform P01116-2 G12C): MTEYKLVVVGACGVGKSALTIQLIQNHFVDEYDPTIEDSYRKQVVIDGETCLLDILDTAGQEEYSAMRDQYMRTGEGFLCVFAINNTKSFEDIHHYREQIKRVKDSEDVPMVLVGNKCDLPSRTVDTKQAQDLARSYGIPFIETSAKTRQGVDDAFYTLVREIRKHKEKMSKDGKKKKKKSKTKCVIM

SMILES: CN(CCCC(=O)Nc1ccncc1)c1nc(OC[C@@]23CCCN2C[C@H](F)C3)nc2c(F)c(-c3ccc(F)c4sc(N)c(C#N)c34)c(Cl)cc12 [Example 269, 4-((7-(2-amino-3-cyano-7-fluorobenzo[b]thiophen-4-yl)-6-chloro-8-fluoro-2-(((2R,7aS)-2-fluorotetrahydro-1H-pyrrolizin-7a(5H)-yl)methoxy)quinazolin-4-yl)(methyl)amino)-N-(pyridin-4-yl) butanamide]
- IC50 [1]: 411 nM
- IC50 (KRas G12C): 4 nM
- IC50 (KRas WT): 9 nM
- IC50 (KRas G12S): 6 nM
- IC50 [2]: 388 nM
- IC50 [3]: 1180 nM

SMILES: CN(CCCC(=O)Oc1ccc(F)cc1)c1nc(OC[C@@]23CCCN2C[C@H](F)C3)nc2c(F)c(-c3ccc(F)c4sc(N)c(C#N)c34)c(Cl)cc12 [Example 270, 4-fluorophenyl 4-((7-(2-amino-3-cyano-7-fluorobenzo[b]thiophen-4-yl)-6-chloro-8-fluoro-2-(((2R,7aS)-2-fluorotetrahydro-1H-pyrrolizin-7a(5H)-yl)methoxy)quinazolin-4-yl)(methyl)amino)butanoate]
- IC50 [1]: 77 nM
- IC50 (KRas G12C): 4 nM
- IC50 (KRas WT): 74 nM
- IC50 (KRas G12S): 22 nM
- IC50 [2]: 340 nM
- IC50 [3]: 462 nM

SMILES: CN(CCCC(=O)Oc1ccc(F)cc1F)c1nc(OC[C@@]23CCCN2C[C@H](F)C3)nc2c(F)c(-c3ccc(F)c4sc(N)c(C#N)c34)c(Cl)cc12 [Example 271, 2,4-difluorophenyl 4-((7-(2-amino-3-cyano-7-fluorobenzo[b]thiophen-4-yl)-6-chloro-8-fluoro-2-(((2R,7aS)-2-fluorotetrahydro-1H-pyrrolizin-7a(5H)-yl)methoxy)quinazolin-4-yl)(methyl)amino)butanoate]
- IC50 [1]: 31 nM
- IC50 (KRas G12C): 4 nM
- IC50 (KRas WT): 81 nM
- IC50 (KRas G12S): 16 nM
- IC50 [2]: 177 nM
- IC50 [3]: 139 nM

SMILES: Cc1ccn(C(=O)C2CCCN(c3nc(OC[C@@]45CCCN4C[C@H](F)C5)nc4c(F)c(-c5ccc(F)c6sc(N)c(C#N)c56)c(C(F)(F)F)cc34)CC2)n1 (stereo partly drawn) [Example 272, 2-amino-7-fluoro-4-(8-fluoro-2-(((2R,7aS)-2-fluorotetrahydro-1H-pyrrolizin-7a(5H)-yl)methoxy)-4-(4-(3-methyl-1H-pyrazole-1-carbonyl)azepan-1-yl)-6-(trifluoromethyl)quinazolin-7-yl)benzo[b]thiophene-3-carbonitrile]
- IC50 [1]: 3 nM
- IC50 (KRas G12C): 6 nM
- IC50 (KRas WT): 9 nM
- IC50 (KRas G12S): 5 nM
- IC50 [2]: 62 nM
- IC50 [3]: 4 nM

SMILES: CCc1c(F)ccc2cc(O)cc(-c3ncc4c(N(C)CCC(=O)N(C)C(C)=O)nc(OC[C@@]56CCCN5C[C@H](F)C6)nc4c3F)c12 [Example 273, N-acetyl-3-((7-(8-ethyl-7-fluoro-3-hydroxynaphthalen-1-yl)-8-fluoro-2-(((2R,7aS)-2-fluorotetrahydro-1H-pyrrolizin-7a(5H)-yl)methoxy)pyrido[4,3-d]pyrimidin-4-yl)(methyl)amino)-N-methylpropanamide]
- IC50 [1]: 494 nM
- IC50 (KRas G12C): 30 nM
- IC50 (KRas WT): 58 nM
- IC50 (KRas G12S): 40 nM
- IC50 [2]: 340 nM
- IC50 [3]: 745 nM

SMILES: CCc1c(F)ccc2cc(O)cc(-c3ncc4c(N5CCC(C(=O)N(C)C(C)=O)C5)nc(OC[C@@]56CCCN5C[C@H](F)C6)nc4c3F)c12 (stereo partly drawn) [Example 274, N-acetyl-1-(7-(8-ethyl-7-fluoro-3-hydroxynaphthalen-1-yl)-8-fluoro-2-(((2R,7aS)-2-fluorotetrahydro-1H-pyrrolizin-7a(5H)-yl)methoxy)pyrido[4,3-d]pyrimidin-4-yl)-N-methylpyrrolidine-3-carboxamide]
- IC50 [1]: 662 nM
- IC50 (KRas G12C): 65 nM
- IC50 (KRas WT): 51 nM
- IC50 (KRas G12S): 89 nM
- IC50 [2]: 287 nM
- IC50 [3]: 326 nM

SMILES: CCc1c(F)ccc2cc(O)cc(-c3ncc4c(N5CCCCC(C(=O)N(C)C(C)=O)CC5)nc(OC[C@@]56CCCN5C[C@H](F)C6)nc4c3F)c12 (stereo partly drawn) [Example 275, N-acetyl-1-(7-(8-ethyl-7-fluoro-3-hydroxynaphthalen-1-yl)-8-fluoro-2-(((2R,7aS)-2-fluorotetrahydro-1H-pyrrolizin-7a(5H)-yl)methoxy)pyrido[4,3-d]pyrimidin-4-yl)-N-methylazocane-4-carboxamide]
- IC50 [1]: 164 nM
- IC50 (KRas G12C): 52 nM
- IC50 (KRas WT): 47 nM
- IC50 (KRas G12S): 15 nM
- IC50 [2]: 437 nM
- IC50 [3]: 58 nM

SMILES: CCc1c(F)ccc2cc(O)cc(-c3ncc4c(N5CC(CC(=O)N(C)C(C)=O)C5)nc(OC[C@@]56CCCN5C[C@H](F)C6)nc4c3F)c12 [Example 276, N-acetyl-2-(1-(7-(8-ethyl-7-fluoro-3-hydroxynaphthalen-1-yl)-8-fluoro-2-(((2R,7aS)-2-fluorotetrahydro-1H-pyrrolizin-7a(5H)-yl)methoxy)pyrido[4,3-d]pyrimidin-4-yl)azetidin-3-yl)-N-methylacetamide]
- IC50 [1]: 1480 nM
- IC50 (KRas G12C): 129 nM
- IC50 (KRas WT): 148 nM
- IC50 (KRas G12S): 68 nM
- IC50 [2]: 1030 nM
- IC50 [3]: 101 nM

SMILES: CCc1c(F)ccc2cc(O)cc(-c3ncc4c(N5CC6CC(C(=O)N(C)C(C)=O)C6C5)nc(OC[C@@]56CCCN5C[C@H](F)C6)nc4c3F)c12 (stereo partly drawn) [Example 277, N-acetyl-3-(7-(8-ethyl-7-fluoro-3-hydroxynaphthalen-1-yl)-8-fluoro-2-(((2R,7aS)-2-fluorotetrahydro-1H-pyrrolizin-7a(5H)-yl)methoxy)pyrido[4,3-d]pyrimidin-4-yl)-N-methyl-3-azabicyclo[3.2.0]heptane-6-carboxamide]
- IC50 [1]: 6510 nM
- IC50 (KRas G12C): 864 nM
- IC50 (KRas WT): 357 nM
- IC50 (KRas G12S): 539 nM
- IC50 [2]: 2360 nM
- IC50 [3]: 549 nM

SMILES: CCc1c(F)ccc2cc(O)cc(-c3ncc4c(N5CC[C@H]6[C@@H](C5)[C@H]6C(=O)N(C)C(C)=O)nc(OC[C@@]56CCCN5C[C@H](F)C6)nc4c3F)c12 [Example 278, (1R,6S)-N-acetyl-3-(7-(8-ethyl-7-fluoro-3-hydroxynaphthalen-1-yl)-8-fluoro-2-(((2R,7aS)-2-fluorotetrahydro-1H-pyrrolizin-7a(5H)-yl)methoxy)pyrido[4,3-d]pyrimidin-4-yl)-N-methyl-3-azabicyclo[4.1.0]heptane-7-carboxamide]
- IC50 [1]: 1180 nM
- IC50 (KRas G12C): 58 nM
- IC50 (KRas WT): 41 nM
- IC50 (KRas G12S): 48 nM
- IC50 [2]: 217 nM
- IC50 [3]: 292 nM

SMILES: CCc1c(F)ccc2cc(O)cc(-c3ncc4c(N5CC6CC(C(=O)N(C)C(C)=O)CC6C5)nc(OC[C@@]56CCCN5C[C@H](F)C6)nc4c3F)c12 (stereo partly drawn) [Example 279, N-acetyl-2-(7-(8-ethyl-7-fluoro-3-hydroxynaphthalen-1-yl)-8-fluoro-2-(((2R,7aS)-2-fluorotetrahydro-1H-pyrrolizin-7a(5H)-yl)methoxy)pyrido[4,3-d]pyrimidin-4-yl)-N-methyloctahydrocyclopenta[c]pyrrole-5-carboxamide]
- IC50 [1]: 4900 nM
- IC50 (KRas G12C): 334 nM
- IC50 (KRas WT): 332 nM
- IC50 (KRas G12S): 188 nM
- IC50 [2]: 1690 nM
- IC50 [3]: 276 nM

SMILES: CCc1c(F)ccc2cc(O)cc(-c3ncc4c(NCC5CC(C(=O)N(C)C(C)=O)C5)nc(OC[C@@]56CCCN5C[C@H](F)C6)nc4c3F)c12 (stereo partly drawn) [Example 280, N-acetyl-3-(((7-(8-ethyl-7-fluoro-3-hydroxynaphthalen-1-yl)-8-fluoro-2-(((2R,7aS)-2-fluorotetrahydro-1H-pyrrolizin-7a(5H)-yl)methoxy)pyrido[4,3-d]pyrimidin-4-yl)amino)methyl)-N-methylcyclobutane-1-carboxamide]
- IC50 [1]: 428 nM
- IC50 (KRas G12C): 17 nM
- IC50 (KRas WT): 9 nM
- IC50 (KRas G12S): 14 nM
- IC50 [2]: 102 nM
- IC50 [3]: 107 nM

SMILES: CCc1c(F)ccc2cc(O)cc(-c3ncc4c(NC[C@@H]5C[C@H]5C(=O)N(C)C(C)=O)nc(OC[C@@]56CCCN5C[C@H](F)C6)nc4c3F)c12 [Example 281, trans-N-acetyl-2-(((7-(8-ethyl-7-fluoro-3-hydroxynaphthalen-1-yl)-8-fluoro-2-(((2R,7aS)-2-fluorotetrahydro-1H-pyrrolizin-7a(5H)-yl)methoxy)pyrido[4,3-d]pyrimidin-4-yl)amino)methyl)-N-methylcyclopropane-1-carboxamide]
- IC50 [1]: 198 nM
- IC50 (KRas G12C): 9 nM
- IC50 (KRas WT): 8 nM
- IC50 (KRas G12S): 10 nM
- IC50 [2]: 41 nM
- IC50 [3]: 243 nM

SMILES: CCc1c(F)ccc2cc(O)cc(-c3ncc4c(N(C)C(C)CCC(=O)N(C)C(C)=O)nc(OC[C@@]56CCCN5C[C@H](F)C6)nc4c3F)c12 (stereo partly drawn) [Example 282, N-acetyl-4-((7-(8-ethyl-7-fluoro-3-hydroxynaphthalen-1-yl)-8-fluoro-2-(((2R,7aS)-2-fluorotetrahydro-1H-pyrrolizin-7a(5H)-yl)methoxy)pyrido[4,3-d]pyrimidin-4-yl)(methyl)amino)-N-methylpentanamide]
- IC50 [1]: 1290 nM
- IC50 (KRas G12C): 82 nM
- IC50 (KRas WT): 184 nM
- IC50 (KRas G12S): 44 nM
- IC50 [2]: 870 nM
- IC50 [3]: 185 nM
